# Source: patent US20090208747A1, “Novel Crystalline Methods and Novel Crystalline and Amorphous forms of Halogenated Sugars” (V.B. MEDICARE PVT. LTD, priority 2006, published 2009)
# Like-named read-outs stand apart in the source and are kept apart here.
# Columns and labels:
# Particle size analysis = conditions: for particle size distribution at 90%: 90% of particles below this size
# [1] = Accelerated stability test, sealed containers incubated at 50° C.; format: physicochemical; conditions: sealed container; for decline in percent assay: in first three days
# Method: For extrapolating potential storage stability beyond one year, an accelerated storage stability test was conducted. In this test, crystalline TGS of small and large mean particle size was incubated at 50° C. in sealed containers. Percent assay and pH were tested after each 24 hours for five successive days. […] A three days' stability in accelerated stability test is extrapolated by Catani et al (2005) to 8 years of storage stability at ambient temperature.
# All the three samples were taken in sealed containers and were incubated at 50° C. […]
# [2] = Stability testing as per ICH Guideline Q1A(R2), storage stability; format: physicochemical
# From the text: Stability testing was done as per ICH Harmonised Tripaertite Guideline Stability Testing of New drug substances and Products Q1A(R2) issued by International Conference on Hamonization of technical requirements for registration of pharmaceuticals for human use and recommended for adoption at Step 4 of the ICH Process on 6 Feb.
# Details are given on table nos 1 to 4 given in the following: […]
# [3] = Analysis against JECFA specifications: solubility; format: physicochemical; conditions: in ethyl acetate
# [4] = Fourth day, listed as Amorphous TGS
# [5] = 25° C. ± 2° C. 60% RH ± 5% RH, 1st month
# [6] = 25° C. ± 2° C. 60% RH ± 5% RH, 2nd month
# [7] = 25° C. ± 2° C. 60% RH ± 5% RH, 3rd month
# [8] = 25° C. ± 2° C. 60% RH ± 5% RH, 4th month
# [9] = 25° C. ± 2° C. 60% RH ± 5% RH, 5th month
# [10] = 25° C. ± 2° C. 60% RH ± 5% RH, 6th month
# [11] = 25° C. ± 2° C. 60% RH ± 5% RH, 12th month
# [12] = 25° C. ± 2° C. 60% RH ± 5% RH, 24th month
# [13] = 30° C. ± 2° C. 65% RH ± 5% RH, 1st month
# [14] = 30° C. ± 2° C. 65% RH ± 5% RH, 2nd month
# [15] = 30° C. ± 2° C. 65% RH ± 5% RH, 3rd month
# [16] = 30° C. ± 2° C. 65% RH ± 5% RH, 4th month
# [17] = 30° C. ± 2° C. 65% RH ± 5% RH, 5th month
# [18] = 30° C. ± 2° C. 65% RH ± 5% RH, 6th month
# [19] = 30° C. ± 2° C. 65% RH ± 5% RH, 12th month
# [20] = 30° C. ± 2° C. 65% RH ± 5% RH, 24th month
# [21] = 40° C. ± 2° C. 75% RH ± 5% RH, 1st month
# [22] = 40° C. ± 2° C. 75% RH ± 5% RH, 2nd month
# [23] = 40° C. ± 2° C. 75% RH ± 5% RH, 3rd month
# [24] = 40° C. ± 2° C. 75% RH ± 5% RH, 4th month
# [25] = 40° C. ± 2° C. 75% RH ± 5% RH, 5th month
# [26] = 40° C. ± 2° C. 75% RH ± 5% RH, 6th month
# [27] = 40° C. ± 2° C. 75% RH ± 5% RH, 12th month
# [28] = 40° C. ± 2° C. 75% RH ± 5% RH, 24th month
# [29] = First day, listed as Crystalline TGS crystallized from butanol:methanol mixture
# [30] = Fourth day, listed as Crystalline TGS crystallized from butanol:methanol mixture
# [31] = 25° C. ± 2° C. 60% RH ± 5% RH, INITIAL
# [32] = 30° C. ± 2° C. 65% RH ± 5% RH, INITIAL
# [33] = 40° C. ± 2° C. 75% RH ± 5% RH, INITIAL
compound,measurement,setting,value
"OC[C@H]1O[C@H](O[C@]2(CCl)O[C@H](CCl)[C@@H](O)[C@@H]2O)[C@H](O)[C@@H](O)[C@H]1Cl [Amorphous TGS small particle size, 1′-6′-Dichloro-1′-6′-DIDEOXY-β-Fructofuranasyl-4-chloro-4-deoxy-galactopyranoside]",particle size distribution at 90%,Particle size analysis; listed as Example 3,below 6 microns
same,particle size distribution at 90%,Particle size analysis; listed as amorphous product,less than 6 microns
same,largest particle size,Particle size analysis; listed as amorphous form,≤ 14 microns
same,PH,[1]; Fifth day,7.06
same,Assay (%),"[1]; Fifth day, listed as Amorphous TGS",98.19%
same,PH,[1]; First day,7.03
same,Assay (%),"[1]; First day, listed as Amorphous TGS",98.21%
same,Assay (%),[1]; [4],98.18%
same,PH,[1]; [4],7.02
same,PH,[1]; Second day,7.03
same,Assay (%),"[1]; Second day, listed as Amorphous TGS",98.20%
same,PH,[1]; Sixth day,7.05
same,Assay (%),"[1]; Sixth day, listed as Amorphous TGS",98.17%
same,Assay (%),"[1]; Third day, listed as Amorphous TGS",98.24%
same,decline in percent assay,[1]; listed as Amorphous form,0.08%
same,decline in percent assay,[1]; listed as amorphous form,0.08%
same,decline in pH,[1]; over three days,0.08 units
same,Assay,[2]; [5],99.34%
same,Assay,[2]; [6],99.36%
same,Assay,[2]; [7],99.32%
same,Assay,[2]; [8],99.36%
same,Assay,[2]; [9],99.28%
same,Assay,[2]; [10],99.23%
same,Assay,[2]; [11],99.22%
same,Assay,[2]; [12],99.14%
same,Assay,[2]; [13],99.84%
same,Assay,[2]; [14],99.84%
same,Assay,[2]; [15],99.62%
same,Assay,[2]; [16],99.65%
same,Assay,[2]; [17],99.58%
same,Assay,[2]; [18],99.53%
same,Assay,[2]; [19],99.62%
same,Assay,[2]; [20],99.32%
same,Assay,[2]; [21],99.68%
same,Assay,[2]; [22],99.65%
same,Assay,[2]; [23],99.67%
same,Assay,[2]; [24],99.58%
same,Assay,[2]; [25],99.52%
same,Assay,[2]; [26],99.46%
same,Assay,[2]; [27],99.52%
same,Assay,[2]; [28],99.12%
same,Assay,[2]; INITIAL (printed in the 40° C. ± 2° C. 75% RH ± 5% RH column),99.70%
same,stability in storage,[2],stable for at least one year in storage
same,Appearance,"[2]; storage condition not given, 1st month",Normal
same,Appearance,"[2]; storage condition not given, 2nd month",Normal
same,Appearance,"[2]; storage condition not given, 3rd month",Normal
same,Appearance,"[2]; storage condition not given, 4th month",Normal
same,Appearance,"[2]; storage condition not given, 5th month",Normal
same,Appearance,"[2]; storage condition not given, 6th month",Normal
same,Appearance,"[2]; storage condition not given, 12th month",Normal
same,Appearance,"[2]; storage condition not given, 24th month",Normal
same,Appearance,"[2]; storage condition not given, INITIAL",Normal
same,stability compared to the crystalline form,[2]; table 4,much more stable
same,Solubility,[3],water. Slightly
"OC[C@H]1O[C@H](O[C@]2(CCl)O[C@H](CCl)[C@@H](O)[C@@H]2O)[C@H](O)[C@@H](O)[C@H]1Cl [Crystalline TGS small particle size, 1′-6′-Dichloro-1′-6′-DIDEOXY-β-Fructofuranasyl-4-chloro-4-deoxy-galactopyranoside]",mean particle size,Particle size analysis,about 4.2 micron
same,particle size distribution at 90%,Particle size analysis; listed as Example 2,below 10 microns
same,particle size distribution at 90%,Particle size analysis; listed as crystallized product,< 10 microns
same,mean particle size,Particle size analysis; listed as Example 2,4.2 micron
same,Assay (%),[1]; [29],99.2%
same,PH,[1]; [29],7.90
same,Assay (%),[1]; [30],99.12%
same,PH,[1]; [30],7.62
same,percent assay as well as pH,[1]; over the test period,stable
same,Appearance,[2]; [5],Normal
same,Assay,[2]; [5],99.02%
same,Specific Rotation,[2]; [5],+85.99°
same,Water content,[2]; [5],0.73%
same,Appearance,[2]; [6],Normal
same,Assay,[2]; [6],99.04%
same,Specific Rotation,[2]; [6],+84.63°
same,Water content,[2]; [6],0.63%
same,Appearance,[2]; [7],Normal
same,Assay,[2]; [7],99.05%
same,Specific Rotation,[2]; [7],+85.31°
same,Water content,[2]; [7],0.22%
same,Appearance,[2]; [8],Normal
same,Specific Rotation,[2]; [8],+84.20°
same,Water content,[2]; [8],0.41%
same,Appearance,[2]; [9],Normal
same,Assay,[2]; [9],98.42%
same,Specific Rotation,[2]; [9],+87.22°
same,Water content,[2]; [9],0.17%
same,Appearance,[2]; [10],Normal
same,Assay,[2]; [10],99.07%
same,Specific Rotation,[2]; [10],+86.78°
same,Water content,[2]; [10],0.23%
same,Appearance,[2]; [11],Normal
same,Assay,[2]; [11],99.02%
same,Specific Rotation,[2]; [11],+85.93°
same,Water content,[2]; [11],0.33%
same,Appearance,[2]; [12],Normal
same,Assay,[2]; [12],98.78%
same,Specific Rotation,[2]; [12],+84.63°
same,Water content,[2]; [12],0.53%
same,Appearance,[2]; [31],Normal
same,Specific Rotation,[2]; [31],+86.07°
same,Water content,[2]; [31],0.52%
same,Appearance,[2]; [13],Normal
same,Specific Rotation,[2]; [13],+86.01°
same,Water content,[2]; [13],0.69%
same,Appearance,[2]; [14],Normal
same,Specific Rotation,[2]; [14],+85.11°
same,Water content,[2]; [14],0.19%
same,Appearance,[2]; [15],Normal
same,Assay,[2]; [15],100.62%
same,Specific Rotation,[2]; [15],+86.29°
same,Water content,[2]; [15],0.28%
same,Appearance,[2]; [16],Normal
same,Assay,[2]; [16],99.95%
same,Specific Rotation,[2]; [16],+86.67°
same,Water content,[2]; [16],0.24%
same,Appearance,[2]; [17],Normal
same,Assay,[2]; [17],99.88%
same,Specific Rotation,[2]; [17],+87.58°
same,Water content,[2]; [17],0.18%
same,Appearance,[2]; [18],Normal
same,Assay,[2]; [18],99.43%
same,Specific Rotation,[2]; [18],+84.35°
same,Water content,[2]; [18],0.42%
same,Appearance,[2]; [19],Normal
same,Specific Rotation,[2]; [19],+85.62°
same,Water content,[2]; [19],0.66%
same,Appearance,[2]; [20],Normal
same,Assay,[2]; [20],98.82%
same,Specific Rotation,[2]; [20],+86.73°
same,Water content,[2]; [20],0.70%
same,Appearance,[2]; [32],Normal
same,Specific Rotation,[2]; [32],+86.07°
same,Water content,[2]; [32],0.52%
same,Appearance,[2]; [21],Normal
same,Assay,[2]; [21],99.06%
same,Specific Rotation,[2]; [21],+86.01°
same,Water content,[2]; [21],0.73%
same,Appearance,[2]; [22],Normal
same,Assay,[2]; [22],99.04%
same,Specific Rotation,[2]; [22],+86°
same,Water content,[2]; [22],1.10%
same,Appearance,[2]; [23],Normal
same,Specific Rotation,[2]; [23],+85.16°
same,Water content,[2]; [23],0.27%
same,Appearance,[2]; [24],Normal
same,Specific Rotation,[2]; [24],+85.81°
same,Water content,[2]; [24],0.22%
same,Appearance,[2]; [25],Normal
same,Assay,[2]; [25],98.96%
same,Specific Rotation,[2]; [25],+85.74°
same,Water content,[2]; [25],0.20%
same,Appearance,[2]; [26],Normal
same,Assay,[2]; [26],98.82%
same,Specific Rotation,[2]; [26],+82.67°
same,Water content,[2]; [26],0.49%
same,Appearance,[2]; [27],Normal
same,Assay,[2]; [27],98.75%
same,Specific Rotation,[2]; [27],+86.01°
same,Water content,[2]; [27],0.73%
same,Appearance,[2]; [28],Normal
same,Assay,[2]; [28],98.52%
same,Specific Rotation,[2]; [28],+86°
same,Water content,[2]; [28],1.10%
same,Appearance,[2]; [33],Normal
same,Specific Rotation,[2]; [33],+86.07°
same,Water content,[2]; [33],0.52%
same,stability in storage,[2]; listed as crystalline TGS of this invention,stable in storage for one year
same,Solubility,[3],water. Slightly
